This passage reports TGI results from PubChem BioAssay (NCI).

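Step 1: Grow cells in 96-well plates. Step 2: Expose to compound for 48 hours at 5 concentrations. Step 3: Interpolate endpoints linearly; if unreached, use highest concentration. TGI: total growth inhibition.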

Some test systems named below: A498 renal; CCRF-CEM leukemia; COLO 205 colon; HL-60(TB) leukemia; HOP-62 NSCLC; HOP-92 NSCLC; LOX IMVI melanoma; MOLT-4 leukemia; NCI-H460 lung; NCI-H522 lung; RXF 393 renal; SF-268 CNS; SK-OV-3 ovarian; SR leukemia; SW-620 colon; DU-145 prostate; NCI/ADR-RES ovarian.
Common to all, as to experiment: NCI tumour cell line growth inhibition, 48 h

On to `CC1=NN(c2ccccc2)C(=O)C1=C1SCCS1`, for which the TGI was above 100 µM in the assay on A498 renal; above 65.5 µM in the assay with CCRF-CEM leukemia; above 56.8 µM with COLO 205 colon; above 58.9 µM with HL-60(TB) leukemia; above 100 µM with HOP-62 NSCLC; above 85.8 µM in the assay with HOP-92 NSCLC. The TGI in the assay on LOX IMVI melanoma was above 63.4 µM; with MOLT-4 leukemia, above 100 µM; in the assay on NCI-H460 lung, above 100 µM; in the assay on NCI-H522 lung, 97.1 µM; in the assay with RXF 393 renal, above 65.4 µM; in the assay on SF-268 CNS it was above 100 µM. In addition, the TGI in the assay with SK-OV-3 ovarian was above 100 µM; with SR leukemia, above 54.4 µM; with SW-620 colon, above 53.8 µM.

As to `CNC(=O)CN(CC(=O)NC)C(=O)NC`, the TGI in the assay with A498 renal, in the assay on CCRF-CEM leukemia, in the assay with COLO 205 colon, in the assay with HL-60(TB) leukemia, with HOP-62 NSCLC and in the assay on HOP-92 NSCLC was above 100 µM each time. Besides, the TGI in the assay on LOX IMVI melanoma, with MOLT-4 leukemia, with NCI-H522 lung, in the assay on RXF 393 renal, with SF-268 CNS and in the assay on SK-OV-3 ovarian was above 100 µM throughout. Also, the TGI with SR leukemia and with SW-620 colon was above 100 µM throughout.

For the compound `CCOC(=O)/C(=C\c1ccc(O)c(OC)c1)C(=O)c1ccccc1`, the TGI is 39 µM with A498 renal; 27.4 µM with CCRF-CEM leukemia; above 69.1 µM in the assay with COLO 205 colon; 61.4 µM with DU-145 prostate; 52.4 µM in the assay with HL-60(TB) leukemia; 70.7 µM with HOP-92 NSCLC. The TGI in the assay with LOX IMVI melanoma was 21.7 µM; with MOLT-4 leukemia, above 52.2 µM; in the assay on NCI-H460 lung, above 60.2 µM; in the assay on NCI-H522 lung, 21.9 µM; in the assay with RXF 393 renal, 57.8 µM; in the assay with SF-268 CNS, 28.1 µM. The results for the TGI in the assay with SK-OV-3 ovarian, in the assay with SR leukemia and in the assay with SW-620 colon were above 61.4 µM, 62.7 µM and 32.4 µM, respectively.

In the case of `CC(=O)c1cccc(NC(=O)/C(=N\NC(C)(C)C)c2c(O)c3ccccc3oc2=O)c1`, the TGI with CCRF-CEM leukemia, with COLO 205 colon, with HL-60(TB) leukemia, in the assay on HOP-62 NSCLC, in the assay on HOP-92 NSCLC and in the assay on LOX IMVI melanoma was above 100 µM throughout. Also, the TGI in the assay with MOLT-4 leukemia, with NCI-H460 lung, with NCI-H522 lung, in the assay on RXF 393 renal, in the assay with SF-268 CNS and with SK-OV-3 ovarian was above 100 µM throughout. The TGI in the assay on SR leukemia and in the assay with SW-620 colon was above 100 µM each time.

With `COc1cccc2c1CCc1ccccc1CC2=O`, the TGI in the assay on A498 renal, in the assay with CCRF-CEM leukemia, with COLO 205 colon, with HL-60(TB) leukemia, with HOP-92 NSCLC and with LOX IMVI melanoma was above 100 µM in each case. Further, the TGI in the assay on MOLT-4 leukemia, in the assay with NCI-H460 lung, with NCI-H522 lung, in the assay with RXF 393 renal, in the assay on SF-268 CNS and in the assay on SK-OV-3 ovarian was above 100 µM in each case. The TGI with SR leukemia and with SW-620 colon was above 100 µM each time.

`COc1ccc(N2C(=O)C3c4[nH]c5ccc(OC)cc5c4C4CCC(C(C)(C)C)CC4C3C2=O)cc1` (stereo not given): the TGI with A498 renal is 49.3 µM; with CCRF-CEM leukemia, above 100 µM; in the assay on COLO 205 colon, above 100 µM; with HL-60(TB) leukemia, above 100 µM; in the assay on HOP-62 NSCLC it was 52.5 µM; in the assay with HOP-92 NSCLC, 36.4 µM. Moreover, the TGI in the assay with LOX IMVI melanoma was above 100 µM; in the assay on MOLT-4 leukemia it was above 100 µM; with NCI-H460 lung, above 100 µM; with NCI-H522 lung it was 89.3 µM; in the assay on RXF 393 renal it was 58.1 µM; with SF-268 CNS, above 100 µM. Moreover, the results for the TGI with SK-OV-3 ovarian, with SR leukemia and in the assay on SW-620 colon were 80 µM, above 100 µM and above 100 µM, respectively.

With `C/C=C(C)/C=C/CC(C)CCC=C(C)C` (stereo not given), the TGI in the assay on A498 renal, in the assay on CCRF-CEM leukemia, in the assay with COLO 205 colon, in the assay with DU-145 prostate, with HL-60(TB) leukemia and in the assay with HOP-92 NSCLC was above 100 µM each time. Further, the TGI in the assay on LOX IMVI melanoma, with MOLT-4 leukemia, with NCI-H460 lung, in the assay with NCI/ADR-RES ovarian, with RXF 393 renal and in the assay on SK-OV-3 ovarian was above 100 µM throughout. The TGI in the assay with SR leukemia and in the assay on SW-620 colon was above 100 µM in each case.

Regarding `COc1ccc(CN2C[C@H]3[C@@H](CC(=O)O[C@H]3C)CC2=O)cc1`, the TGI in the assay with A498 renal, in the assay on CCRF-CEM leukemia, with COLO 205 colon, with DU-145 prostate, in the assay on HOP-62 NSCLC and in the assay on HOP-92 NSCLC was above 100 µM each time. The TGI in the assay on MOLT-4 leukemia, in the assay with NCI-H460 lung, in the assay with NCI-H522 lung, with NCI/ADR-RES ovarian, with RXF 393 renal and in the assay on SF-268 CNS was above 100 µM in each case. The TGI in the assay on SK-OV-3 ovarian, in the assay with SR leukemia and in the assay on SW-620 colon was above 100 µM throughout.

With `C/C(CC(=O)Nc1ccc(Cl)c(Cl)c1)=N/NC(=O)C[n+]1ccccc1`, the TGI in the assay on A498 renal, with CCRF-CEM leukemia, with COLO 205 colon, with HL-60(TB) leukemia, with HOP-62 NSCLC and in the assay on HOP-92 NSCLC was above 100 µM throughout. Besides, the TGI with LOX IMVI melanoma is 37.1 µM; in the assay with MOLT-4 leukemia it was above 100 µM; in the assay on NCI-H460 lung, above 100 µM; in the assay on NCI-H522 lung it was above 100 µM; with RXF 393 renal it was above 100 µM; in the assay on SF-268 CNS it was above 100 µM. Also, the TGI was above 100 µM with SK-OV-3 ovarian and 51.2 µM in the assay on SR leukemia.

As to `C[C@H]1O[C@@H](c2c(O)ccc3ccccc23)C[C@@H](N(C)C)C1O` (stereo not given in full), the TGI in the assay on A498 renal, in the assay with CCRF-CEM leukemia, in the assay on COLO 205 colon, in the assay on DU-145 prostate, with HL-60(TB) leukemia and in the assay on HOP-62 NSCLC was above 100 µM in each case. The TGI is above 100 µM in the assay on HOP-92 NSCLC; above 100 µM in the assay on LOX IMVI melanoma; above 100 µM in the assay on NCI-H460 lung; above 100 µM in the assay on NCI-H522 lung; above 100 µM in the assay with NCI/ADR-RES ovarian; 77.3 µM in the assay with RXF 393 renal. The TGI in the assay on SF-268 CNS, in the assay on SK-OV-3 ovarian and in the assay with SW-620 colon was above 100 µM throughout.
